# Experimental data taken from US20030187056A1, “Live cell procedures to identify to identify compounds modulating intracellular distribution of phosphodiesterase( pde) enzymes” (priority 2000, published 2003).
# Tests used:
# [1] = human, in vivo; cited from earlier work
# HSPDE4A4-EGFP = target: T1, HSPDE4A4-EGFP (Homo sapiens, UniProt P27815); test: Dispersal of preformed Rolipram-induced spots, HSPDE4A4-EGFP CHO cells; type: cell-based; conditions: yes/no
# T1 construct: expressed in transfected cells
# HSPDE4A1-EGFP [2] = target: T2, HSPDE4A1-EGFP (Homo sapiens, UniProt P27815); test: Competitive assay: reversal of Rolipram-induced spot dispersal, HSPDE4A1-EGFP CHO cells; type: cell-based; conditions: yes/no
# T2 construct: the ca. 1.95 kb coding region of HSPDE4A1 (GenBank Acc.no. U97584) is amplified; expressed in transfected cells
# HSPDE4A1-EGFP [3] = target: T2, HSPDE4A1-EGFP; test: Spot dispersal in CHO cells transfected with HSPDE4A1-EGFP; type: cell-based
# Method: (§1) […] The cells are then fixed with 4% formalin buffer (pH7) for 1 hour, washed with PBS and stained with 1 μM Hoechst 33258 in PBS for 10 minutes at 25° C., then washed twice in PBS. Automated images are collected and analysed for the number of spots per cell as described in Example 2.
# as §1
# T2 sequence (P27815 1-647 isoform P27815-4): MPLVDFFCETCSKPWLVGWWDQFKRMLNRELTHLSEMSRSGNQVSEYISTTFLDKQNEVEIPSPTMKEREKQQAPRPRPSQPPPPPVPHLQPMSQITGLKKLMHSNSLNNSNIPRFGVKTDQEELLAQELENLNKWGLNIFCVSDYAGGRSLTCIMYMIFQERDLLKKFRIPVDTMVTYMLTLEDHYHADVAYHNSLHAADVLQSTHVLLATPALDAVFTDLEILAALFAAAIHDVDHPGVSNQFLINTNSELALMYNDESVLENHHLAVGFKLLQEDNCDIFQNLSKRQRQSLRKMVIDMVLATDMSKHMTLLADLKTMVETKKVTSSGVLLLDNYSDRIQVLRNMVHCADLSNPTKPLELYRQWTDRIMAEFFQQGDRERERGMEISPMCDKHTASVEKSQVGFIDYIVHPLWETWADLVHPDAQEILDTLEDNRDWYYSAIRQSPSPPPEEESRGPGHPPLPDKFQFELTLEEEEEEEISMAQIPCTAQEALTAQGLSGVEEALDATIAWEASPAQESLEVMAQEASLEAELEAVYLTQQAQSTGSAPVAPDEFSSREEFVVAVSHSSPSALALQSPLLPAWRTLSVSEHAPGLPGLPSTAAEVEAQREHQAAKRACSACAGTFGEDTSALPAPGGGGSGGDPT
# T1 sequence (P27815 whole entry): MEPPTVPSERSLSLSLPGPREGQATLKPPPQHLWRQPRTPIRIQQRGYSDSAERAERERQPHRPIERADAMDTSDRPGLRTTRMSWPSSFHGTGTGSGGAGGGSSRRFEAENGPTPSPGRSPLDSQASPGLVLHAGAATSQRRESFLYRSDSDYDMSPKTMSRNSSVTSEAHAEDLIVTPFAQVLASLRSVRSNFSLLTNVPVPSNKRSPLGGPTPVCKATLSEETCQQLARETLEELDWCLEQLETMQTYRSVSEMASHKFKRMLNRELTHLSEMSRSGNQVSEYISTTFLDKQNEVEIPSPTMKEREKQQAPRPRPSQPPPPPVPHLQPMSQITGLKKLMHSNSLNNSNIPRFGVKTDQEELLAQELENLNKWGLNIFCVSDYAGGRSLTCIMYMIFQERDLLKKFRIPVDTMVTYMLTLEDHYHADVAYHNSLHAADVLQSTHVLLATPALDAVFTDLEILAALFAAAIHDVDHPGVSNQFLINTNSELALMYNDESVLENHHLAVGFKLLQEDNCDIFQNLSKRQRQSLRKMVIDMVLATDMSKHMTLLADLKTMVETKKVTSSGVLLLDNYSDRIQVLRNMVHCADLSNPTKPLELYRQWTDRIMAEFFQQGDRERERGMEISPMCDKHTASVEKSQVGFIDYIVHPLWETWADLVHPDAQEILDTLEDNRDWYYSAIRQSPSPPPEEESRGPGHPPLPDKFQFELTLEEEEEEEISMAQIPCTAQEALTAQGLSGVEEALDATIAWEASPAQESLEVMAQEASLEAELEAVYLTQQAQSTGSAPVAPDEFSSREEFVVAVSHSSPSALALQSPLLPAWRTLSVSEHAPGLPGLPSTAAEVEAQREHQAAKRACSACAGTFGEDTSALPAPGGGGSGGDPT
smiles,measurement,setting,value
O=c1c2cccnc2n(-c2cccc([N+](=O)[O-])c2)c(=O)n1Cc1ccncc1 [RS25344],Clinical effect,[1],anti-
same,Emesis,[1],yes
same,Removal of Rolipram-induced PDE4A4-spots,HSPDE4A4-EGFP,no
same,Reversal of Rolipram-induced removal of PDE4A1 spots,HSPDE4A1-EGFP [2],no
same,dispersal of PDE4A1 spots (in words),"HSPDE4A1-EGFP [3]; Rolipram 2 micromolar 2 hours, others over the ranges tested",reduce PDE4A1 spot numbers
same,EC50,"HSPDE4A1-EGFP [3]; clonal CHO, 23.5 hours, estimated",5 nM
same,Removal of PDE4A1 spots,HSPDE4A1-EGFP [3]; yes/no,yes
